Assay results published in ChEMBL document CHEMBL1201862, “PubChem BioAssay data set” (2004).
Calls of active or inactive are those of the source.

Assays:
[1] = Luminescent dose response cell-based high throughput screening assay for inhibitors of the Janus kinase 2 mutant JAK2V617F. [Related pubchem assays: 1446 (Primary screen.), 1521 (Confirmation assay.), 1486 (Counter screen.)]; type: functional
[2] = target: T1, Replicative DNA helicase DnaB (Mycobacterium tuberculosis, UniProt P9WMR3); test: DnaB intein splicing inhibitors, dose response, biochemical, cell-free fluorescence (AID 449749); type: functional
T1 sequence (P9WMR3 whole entry): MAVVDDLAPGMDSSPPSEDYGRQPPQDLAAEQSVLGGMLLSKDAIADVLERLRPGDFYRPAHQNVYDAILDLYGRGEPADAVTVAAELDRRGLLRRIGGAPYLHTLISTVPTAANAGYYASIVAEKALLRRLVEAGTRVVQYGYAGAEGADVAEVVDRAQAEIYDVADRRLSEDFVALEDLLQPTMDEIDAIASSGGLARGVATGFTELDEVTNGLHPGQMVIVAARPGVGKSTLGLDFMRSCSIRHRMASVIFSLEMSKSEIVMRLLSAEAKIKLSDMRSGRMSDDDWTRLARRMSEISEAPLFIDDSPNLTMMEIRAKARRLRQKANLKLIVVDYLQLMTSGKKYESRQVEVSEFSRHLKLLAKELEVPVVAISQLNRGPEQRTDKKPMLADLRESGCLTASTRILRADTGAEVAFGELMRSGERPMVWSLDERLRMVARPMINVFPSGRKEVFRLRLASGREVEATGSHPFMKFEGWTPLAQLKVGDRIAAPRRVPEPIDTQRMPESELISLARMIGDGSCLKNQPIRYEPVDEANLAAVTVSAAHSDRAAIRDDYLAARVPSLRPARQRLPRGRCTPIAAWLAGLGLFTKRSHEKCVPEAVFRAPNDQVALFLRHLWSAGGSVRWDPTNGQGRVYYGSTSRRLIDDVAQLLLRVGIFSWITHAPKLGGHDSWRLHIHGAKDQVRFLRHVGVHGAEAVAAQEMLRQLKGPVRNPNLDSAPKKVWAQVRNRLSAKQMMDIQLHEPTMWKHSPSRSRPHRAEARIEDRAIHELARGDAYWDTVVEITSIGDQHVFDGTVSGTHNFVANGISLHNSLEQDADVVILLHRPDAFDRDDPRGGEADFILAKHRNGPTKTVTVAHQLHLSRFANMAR

Protein RecA = target: T2, Protein RecA (Mycobacterium tuberculosis, UniProt P9WHJ3); test: Fluorescence Cell-Free Homogeneous Dose Retest to Identify Inhibitors of RecA-Intein Splicing Activity. [Related pubchem assays (depositor defined):AID2097, AID2223, AID489010, AID492950]; type: functional
T2 sequence (P9WHJ3 whole entry): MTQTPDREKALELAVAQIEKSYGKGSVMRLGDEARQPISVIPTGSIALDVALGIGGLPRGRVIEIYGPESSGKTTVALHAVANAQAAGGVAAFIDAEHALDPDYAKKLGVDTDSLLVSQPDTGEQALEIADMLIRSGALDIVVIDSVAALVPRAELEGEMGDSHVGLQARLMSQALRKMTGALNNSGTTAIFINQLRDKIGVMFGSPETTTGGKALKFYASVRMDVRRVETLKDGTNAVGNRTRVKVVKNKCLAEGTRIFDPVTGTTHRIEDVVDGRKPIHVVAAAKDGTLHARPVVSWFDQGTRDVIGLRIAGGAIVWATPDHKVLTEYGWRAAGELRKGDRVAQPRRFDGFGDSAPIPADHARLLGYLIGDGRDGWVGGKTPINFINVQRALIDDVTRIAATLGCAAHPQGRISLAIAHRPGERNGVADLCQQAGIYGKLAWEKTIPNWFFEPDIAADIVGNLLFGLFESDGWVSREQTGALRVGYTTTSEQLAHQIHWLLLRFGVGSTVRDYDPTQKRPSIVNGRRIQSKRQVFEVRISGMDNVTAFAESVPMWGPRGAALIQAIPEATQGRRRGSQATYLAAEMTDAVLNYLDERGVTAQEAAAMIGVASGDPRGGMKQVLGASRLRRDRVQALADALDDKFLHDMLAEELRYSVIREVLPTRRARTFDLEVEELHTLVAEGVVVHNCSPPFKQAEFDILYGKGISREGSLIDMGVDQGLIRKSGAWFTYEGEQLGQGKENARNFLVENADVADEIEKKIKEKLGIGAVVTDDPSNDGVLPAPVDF

[3] = general cell-killing toxicity readout – plate reader, dry powder samples, cytotoxicity control for PAX8 inhibitor project, dose response (AID 743021); type: functional, cell-based
Paired box protein Pax-8 = Paired box protein Pax-8 (Homo sapiens, UniProt Q06710); test: PAX8 transcriptional activity inhibition in RMG-I – RMG-I cells, luciferase, cherry-pick, dose response (AID 687027); type: functional, cell-based;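 further: luciferase reporter driven by Pax8 target thyroperoxidase promoter measured by SteadyGlo luminescence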
BJ [4] = test: BJ-TERT-LT-ST fibroblast viability loss – cell-based, RAS-independent, luminescence, dose response (AID 1935); type: functional; settings: Homo sapiens;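 further: BJ fibroblasts immortalized with TERT plus LT and ST oncogenes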
[5] = Trypanosoma cruzi growth suppression in host cells – NIH3T3 host cells, beta-gal luminescence, confirmation (AID 2044); type: functional, cell-based;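 further: intracellular parasites grown in NIH/3T3 mouse fibroblasts as host cells; luminescent beta-galactosidase reporter signal from transgenic T. cruzi replicating inside host cells; inhibitors lower the luminescence signal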
[6] = NIH3T3 cell viability loss – ATP luminescence, mouse fibroblasts, counter-screen, dose response (AID 2010); type: functional, cell-based;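 further: cells exposed to compound for about 90 hours before reading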
[7] = DRD fibroblast viability loss – cell-based, non-viral oncogenic, luminescence, dose response (AID 1934); type: functional; settings: Homo sapiens
[8] = target: T3, Heat shock factor protein 1 (Mus musculus, UniProt P38532); test: decrease of HSF1-responsive luciferase luminescence – cell-based, NIH3T3, dose retest, confirmation (AID 2382); type: functional;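 further: NIH3T3 fibroblasts with HSF1-driven luciferase reporter stressed by proteasome inhibitor MG132; luminescence from HSF1-driven luciferase expression after 8 hours of MG132 stress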
T3 sequence (P38532 whole entry): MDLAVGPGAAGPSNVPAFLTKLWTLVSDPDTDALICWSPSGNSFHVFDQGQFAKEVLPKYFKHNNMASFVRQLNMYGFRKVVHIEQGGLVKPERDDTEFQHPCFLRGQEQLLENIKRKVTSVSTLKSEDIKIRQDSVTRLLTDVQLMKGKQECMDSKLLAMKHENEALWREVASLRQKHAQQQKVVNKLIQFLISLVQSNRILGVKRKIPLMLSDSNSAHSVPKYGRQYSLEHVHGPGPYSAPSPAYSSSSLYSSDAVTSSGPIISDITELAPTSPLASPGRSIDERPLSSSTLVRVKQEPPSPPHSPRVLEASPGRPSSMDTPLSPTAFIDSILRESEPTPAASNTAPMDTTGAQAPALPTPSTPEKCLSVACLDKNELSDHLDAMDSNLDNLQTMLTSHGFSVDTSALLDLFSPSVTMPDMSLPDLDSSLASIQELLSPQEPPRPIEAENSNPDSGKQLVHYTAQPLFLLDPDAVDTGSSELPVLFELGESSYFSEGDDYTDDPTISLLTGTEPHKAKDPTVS

BJ [9] = test: cells; type: functional, cell-based; settings: Homo sapiens
BJ [10] = test: BJ-TERT fibroblast viability loss – cell-based, RAS-independent, luminescence, dose response (AID 1933); type: functional; settings: Homo sapiens
Fatty acid synthase [11] = target: T4, Fatty acid synthase (Homo sapiens, UniProt P49327); test: inhibition of human FAS-TE enzyme activity – biochemical, kinetic fluorescence intensity, dose response (AID 624326); type: functional;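 further: rate of fluorescence rise from hydrolysis of a fluorogenic O-methyl fluorescein ester substrate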
Fatty acid synthase [12] = target: T4, Fatty acid synthase; test: inhibition of human FAS-TE enzyme activity – biochemical, endpoint fluorescence intensity, uHTS hits, dose response (AID 624327); type: functional;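 further: fluorescence from hydrolysis of an O-methyl fluorescein acyl ester substrate by the enzyme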
[13] = Late stage counterscreen results from the probe development effort to identify activators of signal transducer and activator of transcription 1 (STAT1): luminescence-based cell-based dose response assay to identify cytotoxic compounds.; type: functional
Estrogen receptor = target: T5, Estrogen receptor (Homo sapiens, UniProt P03372);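 further: potency for inhibiting coactivator peptide recruitment to the receptor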
T5 sequence (P03372 whole entry): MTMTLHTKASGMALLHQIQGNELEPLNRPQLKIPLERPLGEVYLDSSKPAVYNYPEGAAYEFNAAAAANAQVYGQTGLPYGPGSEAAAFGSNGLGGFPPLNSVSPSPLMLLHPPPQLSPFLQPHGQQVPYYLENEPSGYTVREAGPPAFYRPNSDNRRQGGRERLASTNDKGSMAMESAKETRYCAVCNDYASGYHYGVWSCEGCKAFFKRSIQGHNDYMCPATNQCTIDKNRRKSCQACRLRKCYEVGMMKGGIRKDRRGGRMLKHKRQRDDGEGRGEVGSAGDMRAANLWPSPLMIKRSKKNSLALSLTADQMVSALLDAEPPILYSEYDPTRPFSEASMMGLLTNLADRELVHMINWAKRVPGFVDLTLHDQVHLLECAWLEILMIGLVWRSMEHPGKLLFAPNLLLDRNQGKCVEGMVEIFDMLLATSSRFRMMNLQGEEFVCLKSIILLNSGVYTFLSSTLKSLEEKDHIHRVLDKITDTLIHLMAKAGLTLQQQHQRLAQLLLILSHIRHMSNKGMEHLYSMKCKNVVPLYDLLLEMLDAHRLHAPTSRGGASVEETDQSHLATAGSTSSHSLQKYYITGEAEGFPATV

T4 sequence (P49327 whole entry): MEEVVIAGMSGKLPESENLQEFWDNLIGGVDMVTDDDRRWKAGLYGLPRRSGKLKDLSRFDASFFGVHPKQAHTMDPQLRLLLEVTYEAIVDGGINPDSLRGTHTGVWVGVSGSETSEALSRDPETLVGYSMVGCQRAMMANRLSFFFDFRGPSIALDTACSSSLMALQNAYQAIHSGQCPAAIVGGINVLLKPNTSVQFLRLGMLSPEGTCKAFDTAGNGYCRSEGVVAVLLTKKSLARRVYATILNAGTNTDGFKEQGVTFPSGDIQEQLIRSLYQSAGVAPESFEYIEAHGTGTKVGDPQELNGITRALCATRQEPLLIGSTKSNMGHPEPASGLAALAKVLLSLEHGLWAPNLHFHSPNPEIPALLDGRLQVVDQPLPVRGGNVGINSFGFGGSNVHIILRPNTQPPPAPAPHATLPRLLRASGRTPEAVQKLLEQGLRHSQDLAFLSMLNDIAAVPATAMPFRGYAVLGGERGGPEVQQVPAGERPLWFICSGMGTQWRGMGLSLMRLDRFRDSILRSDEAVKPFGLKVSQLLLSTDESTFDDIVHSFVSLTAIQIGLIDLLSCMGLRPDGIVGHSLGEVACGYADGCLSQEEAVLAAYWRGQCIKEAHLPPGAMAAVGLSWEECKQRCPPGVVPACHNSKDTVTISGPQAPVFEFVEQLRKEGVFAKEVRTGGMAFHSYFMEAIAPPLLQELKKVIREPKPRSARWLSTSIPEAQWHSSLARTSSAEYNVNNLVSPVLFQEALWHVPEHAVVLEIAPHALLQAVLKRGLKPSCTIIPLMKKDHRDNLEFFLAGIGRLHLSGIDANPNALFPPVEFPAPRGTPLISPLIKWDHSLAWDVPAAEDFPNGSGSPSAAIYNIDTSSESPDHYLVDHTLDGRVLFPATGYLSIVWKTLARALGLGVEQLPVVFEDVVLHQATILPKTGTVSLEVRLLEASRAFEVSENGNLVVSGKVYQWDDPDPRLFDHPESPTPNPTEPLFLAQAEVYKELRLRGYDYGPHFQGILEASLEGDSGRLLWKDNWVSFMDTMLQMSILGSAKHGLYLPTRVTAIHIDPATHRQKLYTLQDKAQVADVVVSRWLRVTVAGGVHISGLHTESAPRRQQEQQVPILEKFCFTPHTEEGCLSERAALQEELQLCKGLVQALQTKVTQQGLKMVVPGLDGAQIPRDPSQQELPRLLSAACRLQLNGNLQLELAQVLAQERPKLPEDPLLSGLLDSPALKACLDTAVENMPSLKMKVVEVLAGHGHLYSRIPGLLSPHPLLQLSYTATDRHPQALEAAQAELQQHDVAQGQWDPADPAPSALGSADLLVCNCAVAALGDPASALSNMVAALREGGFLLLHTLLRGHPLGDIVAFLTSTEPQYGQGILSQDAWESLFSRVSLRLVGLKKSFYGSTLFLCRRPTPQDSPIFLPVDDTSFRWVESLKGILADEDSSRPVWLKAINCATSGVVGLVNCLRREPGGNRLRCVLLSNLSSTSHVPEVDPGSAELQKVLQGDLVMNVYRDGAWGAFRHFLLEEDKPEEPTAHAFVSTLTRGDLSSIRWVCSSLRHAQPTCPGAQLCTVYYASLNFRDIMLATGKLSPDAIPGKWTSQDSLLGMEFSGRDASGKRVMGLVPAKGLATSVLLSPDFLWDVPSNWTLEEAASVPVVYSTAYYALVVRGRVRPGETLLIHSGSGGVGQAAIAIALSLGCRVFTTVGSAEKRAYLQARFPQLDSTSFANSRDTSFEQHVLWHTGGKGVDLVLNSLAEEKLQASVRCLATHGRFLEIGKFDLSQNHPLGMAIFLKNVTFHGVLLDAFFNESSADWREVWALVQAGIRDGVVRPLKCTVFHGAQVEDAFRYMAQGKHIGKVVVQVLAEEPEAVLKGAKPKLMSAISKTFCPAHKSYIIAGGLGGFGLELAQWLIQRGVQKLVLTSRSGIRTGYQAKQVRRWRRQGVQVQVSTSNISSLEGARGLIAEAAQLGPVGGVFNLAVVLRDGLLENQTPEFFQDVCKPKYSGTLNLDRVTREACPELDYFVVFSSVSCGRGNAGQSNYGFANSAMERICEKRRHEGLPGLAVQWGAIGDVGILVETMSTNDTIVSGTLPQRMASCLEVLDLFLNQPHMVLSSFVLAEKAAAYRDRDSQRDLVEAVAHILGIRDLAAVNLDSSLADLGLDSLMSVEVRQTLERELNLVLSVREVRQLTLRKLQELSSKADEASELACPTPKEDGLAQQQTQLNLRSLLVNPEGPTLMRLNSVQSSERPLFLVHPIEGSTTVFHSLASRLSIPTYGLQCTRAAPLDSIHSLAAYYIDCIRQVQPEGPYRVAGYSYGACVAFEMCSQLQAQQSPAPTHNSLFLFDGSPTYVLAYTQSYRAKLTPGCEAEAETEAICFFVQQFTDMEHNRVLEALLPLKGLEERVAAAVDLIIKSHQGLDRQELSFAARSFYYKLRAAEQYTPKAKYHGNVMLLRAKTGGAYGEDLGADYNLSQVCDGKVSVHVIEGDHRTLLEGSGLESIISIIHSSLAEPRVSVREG
Paired box protein Pax-8, sequence (Q06710 whole entry): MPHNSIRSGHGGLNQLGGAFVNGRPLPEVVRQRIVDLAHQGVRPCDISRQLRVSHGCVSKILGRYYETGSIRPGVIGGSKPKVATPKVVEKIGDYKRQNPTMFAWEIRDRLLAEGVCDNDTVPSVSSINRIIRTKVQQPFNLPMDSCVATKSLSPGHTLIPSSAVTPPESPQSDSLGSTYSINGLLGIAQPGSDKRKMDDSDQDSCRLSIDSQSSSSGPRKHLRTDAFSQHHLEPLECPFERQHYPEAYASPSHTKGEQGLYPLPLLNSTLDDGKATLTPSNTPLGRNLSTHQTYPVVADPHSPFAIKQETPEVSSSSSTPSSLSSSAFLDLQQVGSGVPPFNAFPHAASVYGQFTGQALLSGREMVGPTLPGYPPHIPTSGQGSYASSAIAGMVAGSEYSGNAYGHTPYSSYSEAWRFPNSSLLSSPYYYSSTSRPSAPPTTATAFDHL

SMILES | IC50 [1] | AC50 [2] | EC50 (Protein RecA) | AC50 [3] | AC50 (Paired box protein Pax-8) | IC50 [13] | also measured
CCCCCCN(C(=O)CCl)c1ccccc1 | 1.19 µM (active) | 7.25 µM (active) | 4.45 µM (inconclusive) | 7.01 µM (active) | 6.26 µM (active) | – | –
Cc1cccc(N(Cc2ccccc2)C(=O)CCl)c1 | 0.649 µM (active) | 7.84 µM (active) | 0.536 µM (active) | 4.85 µM (active) | 3.46 µM (active) | – | EC50 (BJ [4]): > 150 µM (inconclusive); EC50 [5]: 0.352 µM (active); EC50 [6]: 2.39 µM (active); EC50 [7]: 2.71 µM (inconclusive); EC50 [8]: 2.91 µM (active); EC50 (BJ [9]): 3.61 µM (active); EC50 (BJ [10]): 0.356 µM (inconclusive)
CC(=O)NC(=S)Nc1sc2c(c1C#N)CCCCC2 | – | – | – | – | – | > 55.7 µM (not active) | IC50 (Fatty acid synthase [11]): 13.6 µM (active); IC50 (Fatty acid synthase [12]): 12.3 µM (active)
COc1ccc2[nH]c3c(c2c1)CCn1c-3nc2ccccc2c1=O | – | – | – | – | – | > 55.7 µM (not active) | IC50 (Estrogen receptor): 17.2 µM (active)
